# Test results as given in patent publication US7906516B2, “Carbonyl compounds” (Merck Patent GmbH, priority 2003, dated 2011).
# Biological target: TF/FVIIa (Homo sapiens, UniProt P08709)
# Assay: TF/factor VIIa inhibition (TF/FVIIa-IC50)
# Format: biochemical
# Sequence of TF/FVIIa (P08709 213-466 limits assumed): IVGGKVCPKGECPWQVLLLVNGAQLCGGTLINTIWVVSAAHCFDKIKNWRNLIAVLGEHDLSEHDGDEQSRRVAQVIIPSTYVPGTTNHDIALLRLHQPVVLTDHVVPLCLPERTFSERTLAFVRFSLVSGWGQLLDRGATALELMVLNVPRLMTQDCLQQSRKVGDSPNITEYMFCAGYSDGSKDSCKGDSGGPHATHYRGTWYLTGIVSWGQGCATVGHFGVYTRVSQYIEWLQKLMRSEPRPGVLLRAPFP
# Sequence of TF/FVIIa (P08709 61-212 partner limits assumed): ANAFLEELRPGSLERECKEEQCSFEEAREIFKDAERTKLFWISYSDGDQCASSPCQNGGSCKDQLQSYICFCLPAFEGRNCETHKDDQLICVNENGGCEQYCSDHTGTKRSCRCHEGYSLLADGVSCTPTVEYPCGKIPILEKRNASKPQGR
# Sequence of TF/FVIIa (P13726 33-295 partner): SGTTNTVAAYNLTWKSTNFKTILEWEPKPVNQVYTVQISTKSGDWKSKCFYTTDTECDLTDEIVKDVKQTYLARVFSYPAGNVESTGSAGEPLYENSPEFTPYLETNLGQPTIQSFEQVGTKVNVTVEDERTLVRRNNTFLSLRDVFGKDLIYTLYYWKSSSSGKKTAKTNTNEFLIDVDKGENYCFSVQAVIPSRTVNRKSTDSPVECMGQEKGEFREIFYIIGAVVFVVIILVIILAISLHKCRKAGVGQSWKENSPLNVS
row,IC50,Compound
1,3900 nM,"O=C(Nc1ccc(N2CCOCC2=O)cc1)[C@H]1CCCN1C(=O)c1ccc(Cl)s1 [AB1, N-[4-(3-oxomorpholin-4-yl)phenyl]-(R)-1-(5-chlorothiophene-2-carbonyl)-pyrrolidine-2-carboxamide]"
2,23 nM,"O=C(Nc1ccc(N2CCOCC2=O)cc1)[C@H]1CCCN1C(=O)Nc1ccc(Cl)cc1 [Compound A1, 1-N-[(4-chlorophenyl)]-2-N-{[4-(3-oxomorpholin-4-yl)phenyl]}-(R)-pyrrolidine-1,2-dicarboxamide]"

# Tested on: not given
# Assay: not given
row,Compound,melting point
1,O=C(NC1CCC(N2CCOCC2=O)CC1)[C@H]1C[C@@H](O)CN1C(=O)Nc1ccc(Cl)cc1 (stereo partly shown),245 °C
2,O=C(Nc1ccc(N2CCOCC2=O)cc1)[C@H]1C[C@@H](O)CN1C(=O)Cc1ccc(Cl)cc1,141 °C
3,O=C(Nc1ccc(N2CCOCC2=O)cc1)[C@H]1C=CCN1C(=O)Nc1ccc(Cl)cc1,245 °C
4,CO[C@@H]1C[C@H](C(=O)Nc2ccc(N3CCOCC3=O)cc2)N(C(=O)Nc2ccc(Cl)cc2)C1,133 °C
5,CCO[C@@H]1C[C@H](C(=O)Nc2ccc(N3CCOCC3=O)c(C)c2)N(C(=O)Nc2ccc(Cl)cc2)C1,117 °C
6,O=C(Nc1ccc(N2CCOCC2=O)cc1)[C@H]1C[C@@H](O)CN1C(=O)/C=C/c1ccc(Cl)s1,151 °C
7,O=C1C[C@H](C(=O)Nc2ccc(N3CCOCC3=O)cc2)N(C(=O)Nc2ccc(Cl)cc2)C1,154 °C
8,CC(C)C(=O)O[C@@H]1C[C@H](C(=O)Nc2ccc(N3CCOCC3=O)cc2)N(C(=O)Nc2ccc(Cl)cc2)C1,129 °C

# Next, values leading:
row,melting point,Compound
1,195 °C,"O=C(Nc1ccc(N2CCOCC2=O)cc1)[C@H]1CCCN1C(=O)c1ccc(Cl)s1 [AB1, N-[4-(3-oxomorpholin-4-yl)phenyl]-(R)-1-(5-chlorothiophene-2-carbonyl)-pyrrolidine-2-carboxamide]"
2,227.6 °C,"O=C(Nc1ccc(N2CCOCC2=O)cc1)[C@H]1CCCN1C(=O)Nc1ccc(Cl)cc1 [Compound A1, 1-N-[(4-chlorophenyl)]-2-N-{[4-(3-oxomorpholin-4-yl)phenyl]}-(R)-pyrrolidine-1,2-dicarboxamide]"

# Biological target: FXa (Homo sapiens, UniProt P00742)
# Sequence (P00742 235-488 limits assumed): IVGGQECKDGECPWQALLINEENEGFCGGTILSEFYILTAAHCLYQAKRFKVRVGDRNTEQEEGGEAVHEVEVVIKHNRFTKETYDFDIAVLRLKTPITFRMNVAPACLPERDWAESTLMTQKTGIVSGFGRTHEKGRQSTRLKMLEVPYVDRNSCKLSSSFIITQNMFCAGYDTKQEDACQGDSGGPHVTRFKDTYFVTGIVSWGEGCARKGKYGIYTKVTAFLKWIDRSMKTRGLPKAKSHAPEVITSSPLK
# Sequence (P00742 41-179 partner limits assumed): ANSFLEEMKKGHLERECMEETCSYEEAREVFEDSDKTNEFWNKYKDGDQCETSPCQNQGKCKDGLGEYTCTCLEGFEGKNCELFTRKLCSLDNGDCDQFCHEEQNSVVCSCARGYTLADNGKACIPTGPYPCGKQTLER
# Assay: Factor Xa inhibition (FXa-IC50)
# Format: biochemical
row,IC50,Compound
1,27 nM,"O=C(Nc1ccc(N2CCOCC2=O)cc1)[C@H]1COCN1C(=O)Nc1ccc(Cl)cc1 [Compound A2, 3-N-[(4-chlorophenyl)]-4-N-{[4-(3-oxomorpholin-4-yl)phenyl]}-(R)-oxazolidine-3,4-dicarboxamide]"
